Test results from patent US4087528A, “2,4-Diamino-5-benzylpyrimidines” (Abbott Laboratories, priority 1976, dated 1978).
Values after ≈ are worked out from the molar mass of the structure shown.

Legend:
[1] = system: Enterobacter aerogenes 13048; experiment: Two-fold tube dilution test, minimal medium (Table 2); format: cell-based; conditions: Klebsiella aerogenes, 37° C., 18 hours, read-out: Minimum Inhibitory Concentration
Protocol: (§1) The four compounds, i.e., compounds V, VI, VII, VIII, were tested against a series of strains including:
(§2) Escherichia coli Juhl and Escherichia coli 3100. The method used was a two-fold tube dilution test in 5 ml. amounts of minimal medium. The inoculum was 0.1 ml. of a 1:1T dilution of a 24 hour broth culture. The test was incubated at 37° C. for 18 hours.

[2] = system: Escherichia coli 3100; experiment: as above; format: cell-based; conditions: 37° C., 18 hours, read-out: Minimum Inhibitory Concentration
Protocol: as §1, §2

[3] = system: Escherichia coli Juhl; experiment: as above; format: cell-based; conditions: 37° C., 18 hours, read-out: Minimum Inhibitory Concentration
Protocol: as §1, §2

[4] = system: Klebsiella pneumoniae 8045; experiment: as above; format: cell-based; conditions: 37° C., 18 hours, read-out: Minimum Inhibitory Concentration
Protocol: as §1, §2

[5] = system: Proteus mirabilis Finland #9; experiment: as above; format: cell-based; conditions: 37° C., 18 hours, read-out: Minimum Inhibitory Concentration
Protocol: as §1, §2

[6] = system: Salmonella typhimurium Ed 9; experiment: as above; format: cell-based; conditions: Salmonella enterica, 37° C., 18 hours, read-out: Minimum Inhibitory Concentration
Protocol: as §1, §2

[7] = system: Staphylococcus aureus 209P; experiment: Tube dilution test, Mueller Hinton Medium (Table 3); format: cell-based; conditions: 18 h, read-out: Minimum Inhibitory Concentration
Protocol: as §2, with “hours. A similar test was made on other strains with the compounds (V, VI, VII and VIII) in 5 ml. amounts of Mueller Hinton Medium.” for “hours.”

[8] = system: Staphylococcus aureus Smith; experiment: as above; format: cell-based; conditions: 18 h, read-out: Minimum Inhibitory Concentration
Protocol: as §2, with “hours. A similar test was made on other strains with the compounds (V, VI, VII and VIII) in 5 ml. amounts of Mueller Hinton Medium.” for “hours.”

[9] = system: Streptococcus pyogenes C203; experiment: as above; format: cell-based; conditions: 18 h, read-out: Minimum Inhibitory Concentration
Protocol: as §2, with “hours. A similar test was made on other strains with the compounds (V, VI, VII and VIII) in 5 ml. amounts of Mueller Hinton Medium.” for “hours.”

[10] = system: E. Coli 114 Sensitive; experiment: Two-fold tube dilution test vs. trimethoprim-sensitive E. coli (Table 4); format: cell-based; conditions: Escherichia coli, minimal medium, 37° C., 18 hours, read-out: Minimum Inhibitory Concentration
Protocol: (§3) Compounds V - VIII were tested and compared with trimethoprim, as control, against two external strains, (Escherichia coli) a sensitive No. 114 and a No. 114 carrying a resistant (R) factor which mediates the synthesis of an altered dihydrofolate reductase; S. G. R. Amyes and J. T. Smith, Biochem. and Biophys., Res. Comm., 58, 412 (1974).
(§4) The method used was a two-fold tube dilution test in 5 ml. amounts of minimal medium. The inoculum was 0.1 ml. of a 1:1T dilution of a 24 hour broth culture. The test was incubated at 37° C. for 18 hours.

[11] = system: E. Coli (Resistant); experiment: microbe, parasite or virus in culture; format: cell-based, Escherichia coli; conditions: for MIC: Escherichia coli, 18 h, read-out: Minimum Inhibitory Concentration
Protocol: as §3, §4

[12] = system: E. Coli 3100; experiment: In vitro potentiation of sulfonamides, two-fold tube dilution test in BBL Nutrient broth (Table 5); format: cell-based, Escherichia Coli; conditions: MIC of sulfonamide alone vs in combination
Protocol: The potentiation properties of the compounds, i.e., compounds V - VIII in various combinations with sulfa compounds, i.e., sulfonamides (sulfamethoxazole, sulfadiazine, sulfamethazine and sulfamerazine) were tested. The method was a two-fold tube dilution test using BBL Nutrient broth in 5 ml. amounts. The inoculum was 0.1 ml. of a 10^-3 dilution 24 hour broth culture of Escherichia Coli 3100. The test was incubated at 37° C. for 18 hours. | *The potentiation effect shown is determined by measuring the minimum | inhibitory concentration (MIC) of the sulfonamide alone and in combinatio | with the compound at the indicated ratios.

[13] = system: E. Coli (48); experiment: Acute Mouse Protection Test (Table 6); format: in vivo, Female, Swiss albino mice; conditions: approximate, combination with sulfamethoxazole, medicated 1 and 5 hours post-infection, 7 days
Protocol: (§5) The test bacteria were transferred to Brain Heart Infusion Broth and incubated at 37° C. for 18 hours. Log dilutions of the organism were made in BHI broth and mixed with 3% hog gastric mucin.
(§6) Female, Swiss albino mice, 18 - 20 grams, were injected intraperitoneally with 0.75 ml. of inoculum.
(§7) The optimum dilution was one in which each mouse received 10 - 10 LD50 's of the infecting organism.
(§8) The test compound was diluted in such a way that there were 5 drug levels (each level is half as concentrated as the one above) in each test. Ten infected mice were treated with each level of drug. The mice were medicated 1 and 5 hours post-infection.

[14] = system: E. Coli (Juhl); experiment: Acute Mouse Protection Test (Table 6); format: in vivo, Female, Swiss albino mice; conditions: approximate, combination with sulfamethoxazole, medicated 1 and 5 hours post-infection, 7 days
Protocol: as §5, §6, §7, §8

[15] = system: P. Mirabilis; experiment: Acute Mouse Protection Test (Table 6); format: in vivo, Female, Swiss albino mice; conditions: approximate, combination with sulfamethoxazole, medicated 1 and 5 hours post-infection, 7 days
Protocol: as §5, §6, §7, §8

[16] = system: P. Vulgaris; experiment: Acute Mouse Protection Test (Table 6); format: in vivo, Female, Swiss albino mice; conditions: approximate, combination with sulfamethoxazole, medicated 1 and 5 hours post-infection, 7 days
Protocol: as §5, §6, §7, §8

[17] = Sulfadiazine, Compound/Sulfa Ratio 1:1
[18] = Sulfadiazine, Compound/Sulfa Ratio 1:5

Row | SMILES | MIC [1] [µg/mL] | MIC [2] [µg/mL] | MIC [3] [µg/mL] | MIC [4] [µg/mL] | MIC [5] [µg/mL] | MIC [6] [µg/mL] | MIC [7] [µg/mL] | MIC [8] [µg/mL] | MIC [9] [µg/mL] | MIC [10] [µg/mL] | MIC [11] [µg/mL] | Potentiation [12, 17] [X] | Potentiation [12, 18] [X] | CD50, Cmpd. part of the Sulfa/Cmpd. combination [13] [Mg./Kg.] | CD50, Cmpd. part of the Sulfa/Cmpd. combination [14] [Mg./Kg.] | CD50, Cmpd. part of the Sulfa/Cmpd. combination [15] [Mg./Kg.] | CD50, Cmpd. part of the Sulfa/Cmpd. combination [16] [Mg./Kg.] | other results
1 | CCNc1c(Cl)cc(Cc2cnc(N)nc2N)cc1Cl [VII, 2,4-Diamino-5-(3,5-dichloro-4-ethylaminobenzyl)pyrimidine] | 25 (≈ 80.1 µM) | 6.2 (≈ 19.9 µM) | 3.1 (≈ 9.93 µM) | 12.5 (≈ 40 µM) | 50 (≈ 160 µM) | 12.5 (≈ 40 µM) | 3.1 (≈ 9.93 µM) | 6.2 (≈ 19.9 µM) | 12.5 (≈ 40 µM) | 3.1 (≈ 9.93 µM) | 200 (≈ 641 µM) | 8.0 | 6.2 | 2 | 35 | 30 | 2 | Potentiation ([12]; Sulfamerazine, Compound/Sulfa Ratio 1:1): 8.0 X; Potentiation ([12]; Sulfamerazine, Compound/Sulfa Ratio 1:5): 3.2 X; Potentiation ([12]; Sulfamethazine, Compound/Sulfa Ratio 1:1): 4.0 X; Potentiation ([12]; Sulfamethazine, Compound/Sulfa Ratio 1:5): 3.2 X; Potentiation ([12]; Sulfamethoxazole, Compound/Sulfa Ratio 1:1): 4.0 X; Potentiation ([12]; Sulfamethoxazole, Compound/Sulfa Ratio 1:5): 3.1 X
2 | Nc1ncc(Cc2cc(Cl)c(N)c(Cl)c2)c(N)n1 [V, 2,4-Diamino-5-(4-amino-3,5-dichlorobenzyl)pyrimidine] | 1.56 (≈ 5.49 µM) | 0.39 (≈ 1.37 µM) | 0.78 (≈ 2.75 µM) | 1.56 (≈ 5.49 µM) | 25 (≈ 88 µM) | 3.1 (≈ 10.9 µM) | 6.2 (≈ 21.8 µM) | 25 (≈ 88 µM) | 6.2 (≈ 21.8 µM) | 1.56 (≈ 5.49 µM) | 400 (≈ 1410 µM) | 31.0 | 3.1 | – | 45 | 30 | – | –
3 | CN(C)c1c(Cl)cc(Cc2cnc(N)nc2N)cc1Cl [VIII, 2,4-Diamino-5-(3,5-dichloro-4-dimethylaminobenzyl)pyrimidine] | 3.1 (≈ 9.93 µM) | 6.2 (≈ 19.9 µM) | 6.2 (≈ 19.9 µM) | 6.2 (≈ 19.9 µM) | 25 (≈ 80.1 µM) | 6.2 (≈ 19.9 µM) | 1.56 (≈ 5 µM) | 3.1 (≈ 9.93 µM) | 3.1 (≈ 9.93 µM) | 6.2 (≈ 19.9 µM) | 100 (≈ 320 µM) | 8.0 | 1.6 | 3 | 45 | 80 | 2 | –
4 | COc1cc(Cc2cnc(N)nc2N)cc(OC)c1OC [Trimethoprim, reference compound] | – | – | – | – | – | – | – | – | – | 0.2 (≈ 0.689 µM) | 3000 (≈ 10300 µM) | – | – | – | – | – | – | increase in resistance caused by the resistant (R) factor ([11]; R factor in E. Coli 114 versus sensitive): several thousand-fold
5 | CNc1c(Cl)cc(Cc2cnc(N)nc2N)cc1Cl [VI, 2,4-Diamino-5-(3,5-dichloro-4-methylaminobenzyl)pyrimidine] | 3.1 (≈ 10.4 µM) | 3.1 (≈ 10.4 µM) | 6.2 (≈ 20.8 µM) | 6.2 (≈ 20.8 µM) | 12.5 (≈ 41.9 µM) | 3.1 (≈ 10.4 µM) | 3.1 (≈ 10.4 µM) | 6.2 (≈ 20.8 µM) | 6.2 (≈ 20.8 µM) | 1.56 (≈ 5.23 µM) | > 400 | 15.9 | 3.1 | 3 | 30 | 60 | 2 | –
